Reference: ChEMBL document CHEMBL4680155, “One-pot synthesis and molecular docking of some new spiropyranindol-2-one derivatives as immunomodulatory agents and in vitro antimicrobial potential with DNA gyrase inhibitor” (Eur J Med Chem, 2020)
In brackets after ≈: the same amount, converted by molar mass. Activity calls are given as the source filed them. No cut-off for these calls is given here.

Legend:
[1] = system: Staphylococcus aureus; experiment: Antibacterial activity against Staphylococcus aureus ATCC 29213 assessed as reduction in bacterial growth incubated for 1 day by paper disk diffusion method; type: functional; details: ATCC 29213, 24 h
[2] = system: Staphylococcus aureus; experiment: Bactericidal activity against Staphylococcus aureus ATCC 29213 incubated for 24 hrs followed by transferring to freshly prepared broth medium and measured after 24 hrs by broth microdilution assay; type: functional; details: time 48 hrs
[3] = system: Salmonella typhimurium; experiment: Antibacterial activity against Salmonella typhi ATCC 6539 assessed as reduction in bacterial growth incubated for 1 day by paper disk diffusion method; type: functional, Salmonella enterica subsp. enterica serovar Typhimurium; details: Salmonella enterica, ATCC 6539, 24 h
[4] = system: Enterococcus faecalis; experiment: Antibacterial activity against Enterococcus faecalis ATCC 29212 assessed as reduction in bacterial growth incubated for 1 day by paper disk diffusion method; type: functional; details: ATCC 29212, 24 h
[5] = system: Salmonella typhimurium; experiment: Bactericidal activity against Salmonella typhi ATCC 6539 incubated for 24 hrs followed by transferring to freshly prepared broth medium and measured after 24 hrs by broth microdilution assay; type: functional, Salmonella enterica subsp. enterica serovar […]; details: Salmonella enterica, time 48 hrs
[6] = system: Candida albicans; experiment: Antifungal activity against Candida albicans ATCC 10231 assessed as diameter of inhibition zone at 0.5 mg/ml incubated for 24 hrs by agar diffusion method; type: functional; details: for zone of inhibition at 500 µg/mL: read-out: DIZ
[7] = system: Enterococcus faecalis; experiment: Antibacterial activity against Enterococcus faecalis ATCC 29212 assessed as diameter of inhibition zone at 0.5 mg/ml incubated for 24 hrs by agar diffusion method; type: functional; details: read-out: DIZ
[8] = system: Escherichia coli; experiment: Antibacterial activity against Escherichia coli ATCC 25922 assessed as reduction in bacterial growth incubated for 1 day by paper disk diffusion method; type: functional; details: ATCC 25922, 24 h
[9] = system: Enterococcus faecalis; experiment: Bactericidal activity against Enterococcus faecalis ATCC 29212 incubated for 24 hrs followed by transferring to freshly prepared broth medium and measured after 24 hrs by broth microdilution assay; type: functional; details: time 48 hrs
[10] = system: Staphylococcus aureus; experiment: Antibacterial activity against Staphylococcus aureus ATCC 29213 assessed as diameter of inhibition zone at 0.5 mg/ml incubated for 24 hrs by agar diffusion method; type: functional; details: read-out: DIZ
[11] = system: Aspergillus brasiliensis; experiment: Antifungal activity against Aspergillus brasiliensis ATCC 16404 assessed as reduction in bacterial growth incubated for 3 days by paper disk diffusion method; type: functional
[12] = system: Salmonella typhimurium; experiment: Antibacterial activity against Salmonella typhi ATCC 6539 assessed as diameter of inhibition zone at 0.5 mg/ml incubated for 24 hrs by agar diffusion method; type: functional, Salmonella enterica subsp. enterica serovar Typhimurium; details: Salmonella enterica, read-out: DIZ
[13] = system: Escherichia coli; experiment: Bactericidal activity against Escherichia coli ATCC 25922 incubated for 24 hrs followed by transferring to freshly prepared broth medium and measured after 24 hrs by broth microdilution assay; type: functional; details: time 48 hrs
[14] = system: Aspergillus brasiliensis; experiment: Antifungal activity against Aspergillus brasiliensis ATCC 16404 assessed as diameter of inhibition zone at 0.5 mg/ml incubated for 72 hrs by agar diffusion method; type: functional; details: for zone of inhibition at 500 µg/mL: read-out: DIZ
[15] = system: Candida albicans; experiment: Antifungal activity against Candida albicans ATCC 10231 assessed as reduction in bacterial growth incubated for 1 day by paper disk diffusion method; type: functional
[16] = system: Escherichia coli; experiment: Antibacterial activity against Escherichia coli ATCC 25922 assessed as diameter of inhibition zone at 0.5 mg/ml incubated for 24 hrs by agar diffusion method; type: functional; details: read-out: DIZ

Row | SMILES | MIC [1] | MBC [2] | MIC [3] | MIC [4] | MBC [5] | diameter of the inhibition zone (DIZ) [6] | zone of inhibition at 500 µg/mL [7] | MIC [8] | MBC [9] | zone of inhibition at 500 µg/mL [10] | MIC ([11]; time 3.0 day) | zone of inhibition at 500 µg/mL [12] | MBC [13] | diameter of the inhibition zone (DIZ) [14] | MIC [15] | zone of inhibition at 500 µg/mL [16] | zone of inhibition at 500 µg/mL [6] | MIC ([11]; ATCC 16404, 72 h, time 3 day) | zone of inhibition at 500 µg/mL [14] | MIC ([15]; ATCC 10231, 24 h)
1 | CN(C)[C@@H]1C(O)=C(C(N)=O)C(=O)[C@@]2(O)C(O)=C3C(=O)c4c(O)cccc4[C@@](C)(O)[C@H]3C[C@@H]12 [TETRACYCLINE] | 62.5 µg/mL (≈ 141 µM) | 87.5 µg/mL (≈ 197 µM) | 62.5 µg/mL (≈ 141 µM) | 62.5 µg/mL (≈ 141 µM) | 81.2 µg/mL (≈ 183 µM) | inactive | 22 mm | 15.6 µg/mL (≈ 35.1 µM) | 37.5 µg/mL (≈ 84.4 µM) | 25 mm | inactive | 21 mm | 18.7 µg/mL (≈ 42.2 µM) | inactive | inactive | 23 mm |  |  |  | 
2 | CCOC(=O)C1=C(N)OC(c2ccccc2)=C(C(=O)OCC)C12C(=O)Nc1ccc(S(=O)(=O)N3CCOCC3)cc12 (stereo not drawn) | 88.3 µg/mL (≈ 151 µM) |  | 125 µg/mL (≈ 214 µM) | 31.2 µg/mL (≈ 53.5 µM) |  |  | 20 mm | 35.5 µg/mL (≈ 60.9 µM) |  | 17 mm |  | 13 mm |  |  |  | 16 mm | 14 mm | 133 µg/mL (≈ 228 µM) | 9 mm | 88.3 µg/mL (≈ 151 µM)
3 | CCOC(=O)C1=C(N)OC(C)=C(C(C)=O)C12C(=O)Nc1ccc(S(=O)(=O)N3CCCCC3)cc12 (stereo not drawn) | 125 µg/mL (≈ 255 µM) |  | 71.1 µg/mL (≈ 145 µM) | 31.2 µg/mL (≈ 63.8 µM) |  |  | 20 mm | 17.8 µg/mL (≈ 36.3 µM) |  | 10 mm |  | 15 mm |  |  |  | 16 mm | 13 mm | 143 µg/mL (≈ 292 µM) | 10 mm | 71.1 µg/mL (≈ 145 µM)
4 | CCOC(=O)/C(C#N)=C1\C(=O)Nc2ccc(S(=O)(=O)N3CCCCC3)cc21 | 167 µg/mL (≈ 428 µM) |  | 125 µg/mL (≈ 321 µM) | 133 µg/mL (≈ 342 µM) |  |  | 15 mm | 62.5 µg/mL (≈ 160 µM) |  | 7 mm |  | 11 mm |  |  |  | 14 mm | 16 mm | 88.3 µg/mL (≈ 227 µM) | 15 mm | 125 µg/mL (≈ 321 µM)
5 | CC(=O)C1=C(C)OC(N)=C(C#N)C12C(=O)Nc1ccc(S(=O)(=O)N3CCCCC3)cc12 (stereo not drawn) | 167 µg/mL (≈ 376 µM) |  | 88.8 µg/mL (≈ 201 µM) | 167 µg/mL (≈ 376 µM) |  |  | 15 mm | 62.5 µg/mL (≈ 141 µM) |  | 8 mm |  | 15 mm |  |  |  | 15 mm | 16 mm | 125 µg/mL (≈ 282 µM) | 14 mm | 71.1 µg/mL (≈ 161 µM)
6 | N#CC(C#N)=C1C(=O)Nc2ccc(S(=O)(=O)N3CCCCC3)cc21 | 133 µg/mL (≈ 389 µM) |  | 143 µg/mL (≈ 417 µM) | 62.5 µg/mL (≈ 183 µM) |  |  | 17 mm | 125 µg/mL (≈ 365 µM) |  | 10 mm |  | 12 mm |  |  |  | 13 mm | 16 mm | 62.5 µg/mL (≈ 183 µM) | 16 mm | 125 µg/mL (≈ 365 µM)
7 | CCOC(=O)C1=C(C)OC(N)=C(C#N)C12C(=O)Nc1ccc(S(=O)(=O)N3CCOCC3)cc12 (stereo not drawn) | 133 µg/mL (≈ 281 µM) |  | 133 µg/mL (≈ 281 µM) | 88.3 µg/mL (≈ 186 µM) |  |  | 14 mm | 31.2 µg/mL (≈ 65.9 µM) |  | 16 mm |  | 15 mm |  |  |  | 19 mm | 18 mm | 167 µg/mL (≈ 351 µM) | 10 mm | 88.3 µg/mL (≈ 186 µM)
